Patent US8921373B2, “Compounds having TRPV1 antagonistic activity and uses thereof” (Shionogi & Co., Ltd., priority 2010, dated 2014)

Tests used:
[1] = test system: FCA-induced inflammation of the rat hind paw; test: Freund's complete adjuvant (FCA) model of inflammatory pain, reversal of hyperalgesia; format: in vivo; details: rats
Method: Test Animals: Each experiment uses rats weighing between 200-260 g at the start of the experiment. The rats are group-housed and have free access to food and water at all times, except prior to oral administration of a compound of Formula I when food is removed for 16 hours before dosing. A control group acts as a comparison to rats treated with a compound of Formula I. The control group is administered the carrier for the compound of Formula I. The volume of carrier administered to the control group is the same as the volume of carrier and compound of Formula I administered to the test group.
Inflammatory Pain: To assess the actions of the compounds of Formula I on the treatment or prevention of inflammatory pain the Freund's complete adjuvant (“FCA”) model of inflammatory pain is used. […] 24 hour post injection, the animal is assessed for response to noxious mechanical stimuli by determining the PWT, or to noxious thermal stimuli by determining the PWL, as described below. […] Responses to noxious mechanical or thermal stimuli are then determined 1, 3, 5 and 24 hours post administration. […]
Response to Mechanical Stimuli as an Assessment of Mechanical Hyperalgesia: The paw pressure assay can be used to assess mechanical hyperalgesia. For this assay, hind paw withdrawal thresholds (PWT) to a noxious mechanical stimulus are determined using an analgesymeter (Model 7200, commercially available from Ugo Basile of Italy) as described in C. […] PWT is determined once for each rat at each time point and only the affected (ipsilateral) paw is tested.
Response to Thermal Stimuli as an Assessment of Thermal Hyperalgesia: The plantar test can be used to assess thermal hyperalgesia. For this test, hind paw withdrawal latencies (PWL) to a noxious thermal stimulus are determined using a plantar test apparatus (commercially available from Ugo Basile of Italy) following the technique described by K. Hargreaves et al., “A New and Sensitive Method for Measuring Thermal Nociception in Cutaneous Hyperalgesia,” Pain 32(1):77-88 (1988). […] Three latencies are determined at each time point and averaged. […]

human recombinant TRPV1 [2] = target: T1, human recombinant TRPV1 (Homo sapiens (Human), UniProt Q8NER1); test: TRPV1 pH-Based Assay (Protocol 2, Ca2+ response in TRPV1/CHO cells, Fura-2); format: cell-based; details: TRPV1/CHO cells, pH 5.0-5.1; read-out: IC50 value by the pH-Based Assay
T1 sequence (Q8NER1 whole entry): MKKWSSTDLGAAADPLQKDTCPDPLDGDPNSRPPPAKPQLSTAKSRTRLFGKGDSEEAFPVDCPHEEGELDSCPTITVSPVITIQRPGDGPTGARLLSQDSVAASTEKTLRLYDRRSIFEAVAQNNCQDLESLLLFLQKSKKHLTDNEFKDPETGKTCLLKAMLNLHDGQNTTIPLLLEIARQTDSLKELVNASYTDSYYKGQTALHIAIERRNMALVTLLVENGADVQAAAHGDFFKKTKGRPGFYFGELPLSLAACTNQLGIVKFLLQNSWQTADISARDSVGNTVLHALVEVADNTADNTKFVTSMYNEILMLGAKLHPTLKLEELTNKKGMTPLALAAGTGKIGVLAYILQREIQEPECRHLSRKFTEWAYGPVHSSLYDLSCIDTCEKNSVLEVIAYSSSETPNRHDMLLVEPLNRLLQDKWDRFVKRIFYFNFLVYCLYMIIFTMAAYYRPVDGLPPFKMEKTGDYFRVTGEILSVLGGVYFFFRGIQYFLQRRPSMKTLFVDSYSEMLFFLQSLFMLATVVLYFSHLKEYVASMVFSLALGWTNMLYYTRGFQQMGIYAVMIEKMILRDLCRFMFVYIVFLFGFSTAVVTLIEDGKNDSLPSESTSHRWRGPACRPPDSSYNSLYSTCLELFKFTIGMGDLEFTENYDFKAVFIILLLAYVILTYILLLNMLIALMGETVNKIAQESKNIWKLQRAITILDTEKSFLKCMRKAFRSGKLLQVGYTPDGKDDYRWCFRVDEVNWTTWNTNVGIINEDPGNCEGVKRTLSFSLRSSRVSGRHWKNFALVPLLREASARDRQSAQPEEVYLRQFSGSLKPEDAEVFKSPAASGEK
Summary of the method: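 CHO cells stably expressing human TRPV1, Fura-2 loaded, given compound (1% DMSO in 10× stock) before acid challenge to final pH 5.0-5.1 (3.2 or 3.3 mM H2SO4). 340/380 nm ratio recorded at 0.5 Hz; maximal ratio after agonist addition versus 16-point baseline used as response.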

human recombinant TRPV1 [3] = target: T1, human recombinant TRPV1; test: TRPV1 Capsaicin-Based Assay (Protocol 2, TRPV1/CHO cells, Fluo-4, FLIPR); format: cell-based; details: TRPV1/CHO cells, capsaicin 100 nM final; read-out: IC50 value by the Capsaicin-Based Assay
Summary of the method: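 CHO cells stably expressing human TRPV1 were loaded with 3 μM Fluo-4 for 1 h, then given compounds in HBSS/1 mM CaCl2/20 mM HEPES pH 7.4 with 1% DMSO for 2 min before 100 nM capsaicin (final). FLIPR fluorescence recorded over the full course; curves fitted.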

SMILES: C[C@H]1CN(c2ncc(C[C@@H](O)CO)cc2C(F)(F)F)CCN1C(=O)Nc1nc2ccc(F)cc2s1 [AGU]
- Percentage reversal of hyperalgesia, % Reversal (3 mg/Kg, 3 hours post administration) [1]: 71%
- IC50 (human recombinant TRPV1 [2]): ≤ 50 nM
- IC50 (human recombinant TRPV1 [3]): ≤ 50 nM

SMILES: Cc1ccc2nc(NC(=O)N3CCN(c4ncc(C[C@@H](O)CO)cc4F)C[C@@H]3C)sc2c1 [AEM]
- Percentage reversal of hyperalgesia, % Reversal (3 mg/Kg, 3 hours post administration) [1]: 59.7%
- IC50 (human recombinant TRPV1 [2]): ≤ 50 nM
